Experimental data: publication PMC11433764, “A Novel Compound from the Phenylsulfonylpiperazine Class: Evaluation of In Vitro Activity on Luminal Breast Cancer Cells” (Molecules, 2024)

Columns and labels:
CDH1 = assay: qPCR, CDH1 expression in MCF7; type: cell-based; details: vs untreated cells
Procedure: (§1) Total RNA was extracted using Trizol reagent (Invitrogen), according to the manufacturer’s protocol. The quality of extracted RNA was verified by the spectrophotometric readings at 260 and 280 nm (Nanodrop 1000-ThermoFisher), and the first strand of cDNA was synthesized from 1 µg of total RNA via reverse transcription using GoScript™ Reverse Transcription Mix (Promega, Madison, WI, EUA). qPCR analysis was performed using 5.0 μL of Power SYBR Green PCR Master Mix (Applied Biosystems, Carlsbad, CA, USA) and run on a StepOnePlus Systems (Applied Biosystems, Carlsbad, CA, USA) device with the following cycling parameters: 40 cycles of 95 °C for 10 s and 60 °C for 30 s. The comparative Cq was used to find the relative expression of CDH1 (E-caderina), ENTPD1 (ectonucleoside triphosphate diphosphohydrolase 1), ENTPD2 (ectonucleoside triphosphate diphosphohydrolase 2), ENTPD3 (ectonucleoside triphosphate diphosphohydrolase 3), ENTPD5 ([…]) and KRT10 (keratin 10) genes, after relative standard curve optimization. β-2-microglobulin (β2M) was used as a reference gene. The primer sequences are described in Table 3.

KRT10 = assay: qPCR, KRT10 expression in MCF7; type: cell-based; details: vs untreated cells
Procedure: as §1

[1] = ABTS radical scavenging assay; details: 40 µM (greatest activity among 10, 20, 40, 80 and 160 µM)
Procedure: The ABTS^+ radical cation scavenging efficacy for compound 3 was determined according to the method described earlier with some modifications. Briefly, an equal amount of 7 mM ABTS^+ (2,20-azino-bis(3-ethylbenzothiazoline-6-sulfonic acid)) stock solution was mixed and kept in the dark at room temperature for 12 h with a 140 mM potassium persulfate stock solution. The ABTS^+ was then diluted in ethanol until it reached a UV absorption value of 0.700 (±0.200) at 734 nm. Compound 3 (10, 20, 40, 80 and 160 µM) was mixed with ABTS^+ in 96-well plates, and absorbance was read at 415 nm using a microplate reader (Thermo Plate TP-Reader, ThermoFisher Scientific, Waltham, MA, USA). The scavenging capability of ABTS^+ radical was expressed as Trolox (0.1 to 2 mM) equivalents.

ENTPD5 = assay: qPCR, ENTPD5 expression in MCF7; type: cell-based; details: vs untreated cells
Procedure: as §1

ENTPD3 = assay: qPCR, ENTPD3 expression in MCF7; type: cell-based; details: vs untreated cells
Procedure: as §1

MCF7 = assay: Wound-healing migration assay; type: cell-based
Procedure: Wound-healing analysis was applied to test cell migration ability. MCF7 cells were seeded in a 6-well plate at a density of 1 × 10^6 cells/well and, after confluence, a “wound” in the monolayer was introduced by a sterilized 200 μL pipet tip. Cells were washed with PBS and treated with compound 3 (1.125, 2.25 and 4.5 µM) for 24 or 48 h in a serum-free medium. Cells were photographed at 0 h, 24 or 48 h under a light microscope (Evos®, ThermoFisher Scientific, Waltham, MA, USA) at 10× objective using the same randomly chosen fields. The cell-free area was measured by ImageJ v. 1.54 g software and migration in the control well was considered to be 100%.

Which “Fold Change CDH1 mRNA” value (CDH1; MCF7, 1.125 µM) does the source give for O=C(c1ccc(-n2cnnn2)cc1)N1CCN(S(=O)(=O)c2ccc(Cl)cc2)CC1 [Compound 3, (4-(1H-tetrazol-1-yl)phenyl)(4-((4-chlorophenyl)sulfonyl)piperazin-1-yl)methanone] here?
Its value is 1.874.

And the “Fold Change CDH1 mRNA” value (CDH1; MCF7, 2.25 µM)?
Its value is 1.045.

And the “Fold Change KRT10 mRNA” value (KRT10; MCF7, 1.125 µM)?
The value was 1.309.

What about the “Fold Change KRT10 mRNA” value (KRT10; MCF7, 2.25 µM) of the same compound?
Its value is 1.913.

What about the “Fold Change KRT10 mRNA” value (KRT10; MCF7, 4.5 µM) of the same compound?
Its value is 1.383.

And the “ABTS inhibition of free radicals” value [1]?
The value was 40%.

What about the “Fold Change ENTPD5 mRNA” value (ENTPD5; MCF7, 1.125 µM) of the same compound?
The value was 2.046.

What about the “Fold Change ENTPD5 mRNA” value (ENTPD5; MCF7, 2.25 µM) of the same compound?
The value was 1.437.

And the “Fold Change ENTPD5 mRNA” value (ENTPD5; MCF7, 4.5 µM)?
The value was 1.306.

What about the “Fold Change ENTPD3 mRNA” value (ENTPD3; MCF7, 1.125 µM) of the same compound?
Its value is 1.641.

And the “Fold Change ENTPD3 mRNA” value (ENTPD3; MCF7, 2.25 µM)?
The value was 1.074.

And the “Fold Change ENTPD3 mRNA” value (ENTPD3; MCF7, 4.5 µM)?
Its value is 1.229.

And the “Migration of MCF7 cells” value (MCF7; 1.13, 2.25 and 4.50 µM, 48 h)?
Its value is “significantly inhibited”.

And the “Migration of MCF7 cells” value (MCF7; 2.25 and 4.50 µM, 24 h)?
Its value is “significantly inhibited”.
